In US8247211B2, “Glycopeptide antibiotics” (American Cyanamid Company, priority 2001, dated 2012):
In brackets after ≈: the same amount, converted by molar mass.

Experiments:
Assay in all cases: In vitro antibacterial evaluation: minimum inhibitory concentration (MIC), broth dilution method
Type in all cases: cell-based
Streptococcus sp. = tested on: Streptococcus sp.
Experimental: (§1) The minimum inhibitory concentration (MIC), the lowest concentration of the antibiotic which inhibits growth of the test organism, is determined by the broth dilution method using Muller-Hinton II […] (Baltimore Biological Laboratories) following the recommendations of the National Committee for Clinical Laboratory Standards [Methods for dilution antimicrobial susceptibility tests for bacteria that grow aerobically, approved standard M7-A2, National Committee for Clinical Laboratory Standards, Villanova, Pa].
(§2) An inoculum level of 5×10^5 CFU/mL, and a range of antibiotic concentrations (64-0.06 μg/mL) is used. […] The test organisms include a spectrum of Gram-positive bacteria comprised of Staphylococcus sp., Streptococcus sp. and Enterococcus sp. These organisms include recent clinical isolates that are resistant to methicillin, penicillin and/or vancomycin.

Enterococcus sp. = tested on: Enterococcus sp.
Experimental: as §1, §2

Escherichia coli = tested on: Escherichia coli
Experimental: as §1, §2

Staphylococcus sp. = settings: broth dilution, 18 hours at 35° C.
Experimental: as §1, §2

MIC Streptococcus agalactiae (GC 4564) (Streptococcus sp.; Streptococcus agalactiae (GC 4564), broth dilution, 18 hours at 35° C.): 0.25 µg/mL (≈ 0.164 µM) | MIC Streptococcus pneumoniae (ATCC 6301) (Streptococcus sp.; Streptococcus pneumoniae (ATCC 6301), broth dilution, 18 hours at 35° C.): 0.5 µg/mL (≈ 0.328 µM) | MIC Streptococcus pneumoniae (GC 1894) (Streptococcus sp.; Streptococcus pneumoniae (GC 1894), broth dilution, 18 hours at 35° C.): <0.12 µg/mL | MIC Streptococcus pneumoniae (GC 4565) (Streptococcus sp.; Streptococcus pneumoniae (GC 4565), broth dilution, 18 hours at 35° C.): 0.25 µg/mL (≈ 0.164 µM) | MIC Streptococcus pyogenes (GC 4563) (Streptococcus sp.; Streptococcus pyogenes (GC 4563), broth dilution, 18 hours at 35° C.): 0.25 µg/mL (≈ 0.164 µM) | MIC Streptococcus pneumoniae (ATCC 6301) (Streptococcus sp.; strain ATCC 6301): 0.5 µg/mL (≈ 0.328 µM) | MIC Streptococcus pneumoniae (GC 1894) (Streptococcus sp.; strain GC 1894): <0.12 µg/mL | MIC Streptococcus pyogenes (GC 4563) (Streptococcus sp.; strain GC 4563): 0.25 µg/mL (≈ 0.164 µM) | MIC Streptococcus agalactiae (GC 4564) (Streptococcus sp.; strain GC 4564): 0.25 µg/mL (≈ 0.164 µM) | MIC Streptococcus pneumoniae (GC 4565) (Streptococcus sp.; strain GC 4565): 0.25 µg/mL (≈ 0.164 µM) | MIC Enterococcus faecalis (GC 2242) (Enterococcus sp.; Enterococcus faecalis (GC 2242), broth dilution, 18 hours at 35° C.): 4 µg/mL (≈ 2.62 µM) | MIC Enterococcus faecalis (GC 2691) (Enterococcus sp.; Enterococcus faecalis (GC 2691), broth dilution, 18 hours at 35° C.): 4 µg/mL (≈ 2.62 µM) | MIC Enterococcus faecalis (GC 3059) (Enterococcus sp.; Enterococcus faecalis (GC 3059), broth dilution, 18 hours at 35° C.): 4 µg/mL (≈ 2.62 µM) | MIC Enterococcus faecalis (ATCC 29212) (Enterococcus sp.; strain ATCC 29212): 4 µg/mL (≈ 2.62 µM) | MIC Enterococcus faecalis (GC 2242) (Enterococcus sp.; strain GC 2242): 4 µg/mL (≈ 2.62 µM) | MIC Enterococcus faecium (GC 2243) (Enterococcus sp.; strain GC 2243): 2 µg/mL (≈ 1.31 µM) | MIC Enterococcus faecalis (GC 2691) (Enterococcus sp.; strain GC 2691): 4 µg/mL (≈ 2.62 µM) | MIC Enterococcus faecalis (GC 3059) (Enterococcus sp.; strain GC 3059): 4 µg/mL (≈ 2.62 µM) | MIC Enterococcus faecalis (GC 4552) (Enterococcus sp.; strain GC 4552): 4 µg/mL (≈ 2.62 µM) | MIC Enterococcus faecalis (GC 4553) (Enterococcus sp.; strain GC 4553): 2 µg/mL (≈ 1.31 µM) | MIC Enterococcus faecalis (GC 4554) (Enterococcus sp.; strain GC 4554): 4 µg/mL (≈ 2.62 µM) | MIC Enterococcus faecium (GC 4556) (Enterococcus sp.; strain GC 4556): 4 µg/mL (≈ 2.62 µM) | MIC Enterococcus faecium (GC 4557) (Enterococcus sp.; strain GC 4557): 1 µg/mL (≈ 0.655 µM) | MIC Enterococcus avium (GC 4558) (Enterococcus sp.; strain GC 4558): 2 µg/mL (≈ 1.31 µM) | MIC Enterococcus faecalis (GC 6189) (Enterococcus sp.; strain GC 6189): 4 µg/mL (≈ 2.62 µM) | MIC Escherichia coli (ATCC 25922) (Escherichia coli; strain ATCC 25922): 64 µg/mL (≈ 41.9 µM) | MIC Escherichia coli (GC 4559) (Escherichia coli; strain GC 4559): 32 µg/mL (≈ 21 µM) | MIC Escherichia coli (GC 4560) (Escherichia coli; strain GC 4560): 2 µg/mL (≈ 1.31 µM) | MIC Staphylococcus aureus (ATCC 29213) (Staphylococcus sp.): 2 µg/mL (≈ 1.31 µM) | MIC Staphylococcus aureus (GC 1131) (Staphylococcus sp.): 4 µg/mL (≈ 2.62 µM) | MIC Staphylococcus aureus (GC 3051) (Staphylococcus sp.): 4 µg/mL (≈ 2.62 µM) | MIC Staphylococcus aureus (GC 3053) (Staphylococcus sp.): 4 µg/mL (≈ 2.62 µM) | MIC Staphylococcus aureus (GC 4541) (Staphylococcus sp.): 2 µg/mL (≈ 1.31 µM) | MIC Staphylococcus aureus (GC 4542) (Staphylococcus sp.): 4 µg/mL (≈ 2.62 µM) | MIC Staphylococcus aureus (GC 4544) (Staphylococcus sp.): 4 µg/mL (≈ 2.62 µM) | MIC Staphylococcus aureus (GC 4545) (Staphylococcus sp.): 2 µg/mL (≈ 1.31 µM) | MIC Staphylococcus aureus-SMITH (GC 4543) (Staphylococcus sp.; strain SMITH GC 4543): 2 µg/mL (≈ 1.31 µM)
SMILES: CCCCCCCN1CC(C(O)C2NC(=O)C(C(O)C3CNC(=N)N3)NC(=O)C(Cc3ccc(OC4OC(CO)C(OC5OC6COC7(OC6C(O)C5O)C5CC6CC(C5)CC7C6)C(O)C4O)cc3)NC(=O)C(C(C)c3ccccc3)NC(=O)CNC(=O)C(CO)NC2=O)N(C2OC(CO)C(O)C(O)C2O)C1=N (stereo not drawn) [Example 83, Cyclo[glycyl-β-methylphenylalanyl-O-[4-O-[4,6-O-(2-adamantylidene)hexopyranosyl]hexopyranosyl]tyrosyl-3-(2-iminoimidazolidin-4-yl)seryl-3-[1-heptyl-3-hexopyranosyl-2-iminoimidazolidin-4-yl]serylseryl]]
